For experiment [1], the system named is T47D cells. Description: Internalization and cluster formation, 3D spheroids. The note with it: 3D Spheroids (SD55); 10 ug/mL. The class given is cell-based. How it is done: (§1) For 2D monolayer assays, T47D cells were plated on collagen-coated 96-well optical plates (Greiner, Cat #655936) at 25,000 cells/well in complete media and incubated overnight at 37° C. in 5% CO2. For 3D spheroids, cells were plated in low adhesion 96-well plates (Corning #4515) at 10,000 cells/well and incubated for 72 hours. The day of the assay, cells were incubated for 30 minutes with cold (4° C.) media containing 10 ug/mL of Alexa647 (Thermo, Cat #A37573) labeled antibodies. After, cells were washed twice (5 minutes, 100 ul, 4° C., complete medium) and incubated in complete media at 37° C. for 60 minutes. Cells were incubated for 30 minutes with cold (4° C.) media containing 4 ug/mL of Alexa488 anti-Human Fab (Jackson #109-547-003). […] After, the solution was replaced with PBS. Images were acquired with a Zeiss Spinning Disc Confocal Microscope and analyzed using Zeiss Zen Blue software. Quantification of the number of intracellular vesicles and surface clusters was performed in single confocal sections of representative images.

Experiment [2] relates to T47D cells. Kind of experiment: Internalization and cluster formation, 2D monolayers. The class given is cell-based. The note with it: 2D monolayers (SD53); 10 ug/mL. How it is done: as §1
The target in experiment [3] is T1, hErbB2-MMH (Homo sapiens, UniProt P04626).
T1 construct: myc-myc-hexahistidine (C); made in house
Kind of experiment: Surface plasmon resonance binding kinetics at 25° C. How it is done:
Equilibrium dissociation constants (KD values) for hErbB2.mmh binding to anti-HER2×HER2 antibodies conjugated with either M830 or M1 were determined using a real-time surface plasmon resonance biosensor assay on a MASS-2 instrument. The MASS-2 sensor surface was derivatized by amine coupling with a monoclonal mouse anti-human Fc antibody (REGN2567) to capture anti-HER2×HER2 ADC and parent unmodified antibodies expressed with human constant regions. […] Human hErbB2 was prepared in-house expressing a C-terminal myc-myc-hexahistidine tag (hErbB2-MMH). […] Association of hErbB2-MMH to each of the captured ADCs and monoclonal antibodies was monitored for 3 minutes. Subsequently, hErbB2-MMH dissociation was monitored for 10 minutes in HBS-EP running buffer. Anti-human Fc surface was regenerated by a brief injection of 20 mM H3PO4. All binding kinetic experiments were performed at 25° C.
Kinetic association (ka) and dissociation (kd) rate constants were determined by fitting the real-time sensorgrams to a 1:1 binding model using Scrubber 2.0c curve fitting software. All sensorgrams were double referenced by subtracting buffer injection sensorgram signal from the corresponding analyte sensorgram, thereby removing artifacts caused by dissociation of the antibody from the capture surface. Binding dissociation equilibrium constants (KD) and dissociative half-lives (t½) were calculated from the kinetic rate constants as: […]
(In general: SPR reads the build-up and loss of mass on a sensor chip optically.)

Take “CompAb2: parental HER2×HER2 bispecific antibody of MEDI4276 (SEQ ID NO: 52 and 53) [reference compound]”: in experiment [1], the Cluster % is 41% and the “Internalized Vesicles %” value came to 100%. In experiment [2], the Cluster % came out at 28% and the “Internalized Vesicles %” value worked out at 100%. Moreover, in experiment [3], the “Antigen Bound” value came out at 177.8 RU, the ka stood at 290000 M⁻¹ s⁻¹ and the kd is at most 1e-05 s⁻¹.

Source of the values: US12583939B2, “Bispecific antigen binding molecules that bind HER2, and methods of use thereof” (Regeneron Pharmaceuticals, Inc., priority 2020, dated 2026).
